Assay results as given in PubChem BioAssay AID1963849 (Molecular Pharmacology Branch, DTP, NCI, 2024).

Tested on: 299254-011-R-J1-PDC complex spheroid viability
Experiment: Anticancer human tumor 299254-011-R-J1-PDC patient-derived melanoma cell line growth inhibition [POLQ]
Conditions: for IC50: curve of first compound; for viability, T/C: stronger effect = lower value
Description: Multicellular complex tumor spheroid response to Polymerase (POL) inhibitors (novobiocin, ART-558, RP6685) in combination with a variety of drugs and investigational agents in selected tumor cell lines
The POL inhibitors (novobiocin, ART-558, and RP6685) were evaluated both individually and in combination with standard of care and investigational anticancer small molecules within a complex spheroid model of solid tumors. . Complex spheroids include a stromal component modeled by human endothelial cells (HUVEC) and fibroblasts modeled by human mesenchymal stem cells (MSCs). The concentration ranges selected for each drug and investigational agent were based upon clinically achievable concentrations if the clinical Cmax of the agent was known.
Compounds. The drugs and investigational agents: novobiocin (NSC847541), ART-558 (NSC835418), RP-6685 (NSC848927), peposertib (NSC802822), ceralasertib (NSC780249), elimusertib (NSC800525), camonsertib (NSC841442), AZD-1390 (NSC803789), olaparib (NSC753686), talazoparib (NSC767125), rucaparib (NSC756644), sotorasib (NSC818433), MRTX-1133 (NSC836407), SN-38 (NSC673596), topotecan (NSC609699), epotoside (NSC141540), doxorubicin (NSC123127), gemcitabine (NSC613327), 5-fluorouracil (NSC19893), paclitaxel (NSC125973), vemurafenib (NSC761431), MSA-2 (NSC828583), SN-011 (NSC837082), adavosertib (NSC754352), prexasertib (NSC758257), carboplatin (NSC241240) and oxaliplatin (NSC266046), were obtained from the National Cancer Institute (NCI) Developmental Therapeutics Program Chemical Repository (21). The FDA-approved anticancer drug set is available from the Developmental Therapeutics Program at https://dtp.cancer.gov/organization/dscb/obtaining/. […] The stock solutions were prepared in dimethyl sulfoxide (DMSO, Sigma-Aldrich, St. Louis, MO, cat. D2650), except for the platinum compounds which were prepared in saline (Quality Biological, Gaithersburg, MD, cat. 114-055-101), at 800-fold the tested concentration and stored at -70 degrees C prior to their use. All drugs and investigational agents were tested over a range starting from a high concentration at or near the clinical Cmax and decreasing in half-log increments. If the clinical Cmax for an agent had not been determined, the highest concentration tested was 10 microM, except for SN-38, which was tested at a high concentration of 1 microM.
Cell Culture. All cells were maintained in an incubator at 37 degrees C and 5% CO2 with 95% humidity. The PDC lines were cultured according to standard operating procedures established by the NCI PDMR (https://pdmr.cancer.gov). Table 3 of the manuscript, lists the cell lines along with the number of the three cell types plated to form the mct-spheroids and media for tumor cell growth. After thawing, all PDC lines, except 997537-175-T-J1-PDC and 415267-285-R-J2-PDC, were cultured in Matrigel-coated flasks prepared with a working solution of 1X Ham's F-12 nutrient mix, without supplementation (Thermo Fisher Scientific, cat. 11765054), 100 U/mL penicillin-streptomycin (Thermo Fisher Scientific, cat. 15140122), and 2.5% Matrigel (Corning Inc., Corning, NY, cat. 354248) for the first three passages. The two PDC lines 997537-175-T-J1-PDC and 415267-285-R-J2-PDC were cultured on uncoated flasks. The 857933-349-R-J2-PDC line was cultured in 6C/Colon 1B media containing advanced DMEM/F-12 (Thermo Fisher Scientific, cat. 12634028), 10 mM HEPES (Thermo Fisher Scientific, cat. 15630080), 1X GlutaMAX supplement (Thermo Fisher Scientific, cat. 35050061), 0.1 mg/mL primocin (InvivoGen, San Diego, CA, cat. ant-pm-2), 10% defined fetal bovine serum, heat inactivated (HyClone Laboratories Inc., Logan, UT, cat. SH30070.03HI), 50% L-WRN conditioned media (ATCC, cat. CRL-3276), 1.25 mM N-Acetyl-L-cysteine (Sigma-Aldrich, cat. A9165), 10 mM nicotinamide (Sigma-Aldrich, cat. N0636), 1X B-27 supplement (Thermo Fisher Scientific, cat. 17504044), 1X N-2 supplement (Thermo Fisher Scientific, cat. […]

[1] = second compound 0.0316 µM, first compound 0.0316 µM
[2] = second compound 0.0316 µM, first compound 0.1 µM
[3] = second compound 0.0316 µM, first compound 0.316 µM
[4] = second compound 0.0316 µM, first compound 1 µM
[5] = second compound 0.1 µM, first compound 0.0316 µM
[6] = second compound 0.1 µM, first compound 0.1 µM
[7] = second compound 0.1 µM, first compound 0.316 µM
[8] = second compound 0.1 µM, first compound 1 µM
[9] = second compound 0.316 µM, first compound 0.0316 µM
[10] = second compound 0.316 µM, first compound 0.1 µM
[11] = second compound 0.316 µM, first compound 0.316 µM
[12] = second compound 0.316 µM, first compound 1 µM
[13] = second compound 1 µM, first compound 0.0316 µM
[14] = second compound 1 µM, first compound 0.1 µM
[15] = second compound 1 µM, first compound 0.316 µM
[16] = second compound 1 µM, first compound 1 µM
[17] = second compound 3.16 µM, first compound 0.0316 µM
[18] = second compound 3.16 µM, first compound 0.1 µM
[19] = second compound 3.16 µM, first compound 0.316 µM
[20] = second compound 3.16 µM, first compound 1 µM
[21] = second compound 10 µM, first compound 0.0316 µM
[22] = second compound 10 µM, first compound 0.1 µM
[23] = second compound 10 µM, first compound 0.316 µM
[24] = second compound 10 µM, first compound 1 µM
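Also: spheroids exposed to drugs for one week before measurement.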
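For viability, T/C in this document: percent viability relative to DMSO vehicle control taken as 100%.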

Structure (SMILES): C=CCn1c(=O)c2cnc(Nc3ccc(N4CCN(C)CC4)cc3)nc2n1-c1cccc(C(C)(C)O)n1 + COC1C(OC(N)=O)C(O)C(Oc2ccc3c(O)c(NC(=O)c4ccc(O)c(CC=C(C)C)c4)c(=O)oc3c2C)OC1(C)C
- IC50 (second compound 0.0316 µM): > 1 µM
- IC50 (second compound 0.1 µM): > 1 µM
- IC50 (second compound 0.316 µM): > 1 µM
- IC50 (second compound 1 µM): > 1 µM
- IC50 (second compound 3.16 µM): > 1 µM
- IC50 (second compound 10 µM): > 1 µM
- viability, T/C (second compound 0.0316 µM, first compound 0.00316 µM): 89.1%
- viability, T/C (second compound 0.0316 µM, first compound 0.01 µM): 99.6%
- viability, T/C [1]: 99.6%
- viability, T/C [2]: 112%
- viability, T/C [3]: 95.1%
- viability, T/C [4]: 74.4%
- viability, T/C (second compound 0.1 µM, first compound 0.00316 µM): 116%
- viability, T/C (second compound 0.1 µM, first compound 0.01 µM): 97.7%
- viability, T/C [5]: 127%
- viability, T/C [6]: 122%
- viability, T/C [7]: 87.5%
- viability, T/C [8]: 64.5%
- viability, T/C (second compound 0.316 µM, first compound 0.00316 µM): 105%
- viability, T/C (second compound 0.316 µM, first compound 0.01 µM): 99%
- viability, T/C [9]: 101%
- viability, T/C [10]: 98.6%
- viability, T/C [11]: 115%
- viability, T/C [12]: 60.5%
- viability, T/C (second compound 1 µM, first compound 0.00316 µM): 111%
- viability, T/C (second compound 1 µM, first compound 0.01 µM): 96.2%
- viability, T/C [13]: 96.4%
- viability, T/C [14]: 102%
- viability, T/C [15]: 97.9%
- viability, T/C [16]: 78.2%
- viability, T/C (second compound 3.16 µM, first compound 0.00316 µM): 112%
- viability, T/C (second compound 3.16 µM, first compound 0.01 µM): 103%
- viability, T/C [17]: 94.9%
- viability, T/C [18]: 107%
- viability, T/C [19]: 95.3%
- viability, T/C [20]: 69.6%
- viability, T/C (second compound 10 µM, first compound 0.00316 µM): 104%
- viability, T/C (second compound 10 µM, first compound 0.01 µM): 121%
- viability, T/C [21]: 115%
- viability, T/C [22]: 119%
- viability, T/C [23]: 95.2%
- viability, T/C [24]: 68.9%

Structure (SMILES): CNCc1ccc(-c2[nH]c3cc(F)cc4c3c2CCNC4=O)cc1 + COC1C(OC(N)=O)C(O)C(Oc2ccc3c(O)c(NC(=O)c4ccc(O)c(CC=C(C)C)c4)c(=O)oc3c2C)OC1(C)C
- IC50 (second compound 0.0316 µM): > 10 µM
- IC50 (second compound 0.1 µM): > 10 µM
- IC50 (second compound 0.316 µM): > 10 µM
- IC50 (second compound 1 µM): > 10 µM
- IC50 (second compound 3.16 µM): > 10 µM
- IC50 (second compound 10 µM): > 10 µM
- viability, T/C [1]: 99.5%
- viability, T/C [2]: 98.7%
- viability, T/C [3]: 102%
- viability, T/C [4]: 117%
- viability, T/C (second compound 0.0316 µM, first compound 3.16 µM): 114%
- viability, T/C (second compound 0.0316 µM, first compound 10 µM): 103%
- viability, T/C [5]: 114%
- viability, T/C [6]: 106%
- viability, T/C [7]: 102%
- viability, T/C [8]: 107%
- viability, T/C (second compound 0.1 µM, first compound 3.16 µM): 118%
- viability, T/C (second compound 0.1 µM, first compound 10 µM): 133%
- viability, T/C [9]: 91.6%
- viability, T/C [10]: 94.9%
- viability, T/C [11]: 98.7%
- viability, T/C [12]: 105%
- viability, T/C (second compound 0.316 µM, first compound 3.16 µM): 97.2%
- viability, T/C (second compound 0.316 µM, first compound 10 µM): 116%
- viability, T/C [13]: 91.8%
- viability, T/C [14]: 105%
- viability, T/C [15]: 105%
- viability, T/C [16]: 117%
- viability, T/C (second compound 1 µM, first compound 3.16 µM): 117%
- viability, T/C (second compound 1 µM, first compound 10 µM): 115%
- viability, T/C [17]: 113%
- viability, T/C [18]: 90.9%
- viability, T/C [19]: 95.4%
- viability, T/C [20]: 118%
- viability, T/C (second compound 3.16 µM, first compound 3.16 µM): 105%
- viability, T/C (second compound 3.16 µM, first compound 10 µM): 111%
- viability, T/C [21]: 113%
- viability, T/C [22]: 104%
- viability, T/C [23]: 111%
- viability, T/C [24]: 106%
- viability, T/C (second compound 10 µM, first compound 3.16 µM): 96.3%
- viability, T/C (second compound 10 µM, first compound 10 µM): 100%
